The target of this experiment is T1, Androgen Receptor (Homo sapiens, UniProt P10275).
T1 construct: endogenous in cells; host or cells: VCaP cells
T1 sequence (P10275 1-920): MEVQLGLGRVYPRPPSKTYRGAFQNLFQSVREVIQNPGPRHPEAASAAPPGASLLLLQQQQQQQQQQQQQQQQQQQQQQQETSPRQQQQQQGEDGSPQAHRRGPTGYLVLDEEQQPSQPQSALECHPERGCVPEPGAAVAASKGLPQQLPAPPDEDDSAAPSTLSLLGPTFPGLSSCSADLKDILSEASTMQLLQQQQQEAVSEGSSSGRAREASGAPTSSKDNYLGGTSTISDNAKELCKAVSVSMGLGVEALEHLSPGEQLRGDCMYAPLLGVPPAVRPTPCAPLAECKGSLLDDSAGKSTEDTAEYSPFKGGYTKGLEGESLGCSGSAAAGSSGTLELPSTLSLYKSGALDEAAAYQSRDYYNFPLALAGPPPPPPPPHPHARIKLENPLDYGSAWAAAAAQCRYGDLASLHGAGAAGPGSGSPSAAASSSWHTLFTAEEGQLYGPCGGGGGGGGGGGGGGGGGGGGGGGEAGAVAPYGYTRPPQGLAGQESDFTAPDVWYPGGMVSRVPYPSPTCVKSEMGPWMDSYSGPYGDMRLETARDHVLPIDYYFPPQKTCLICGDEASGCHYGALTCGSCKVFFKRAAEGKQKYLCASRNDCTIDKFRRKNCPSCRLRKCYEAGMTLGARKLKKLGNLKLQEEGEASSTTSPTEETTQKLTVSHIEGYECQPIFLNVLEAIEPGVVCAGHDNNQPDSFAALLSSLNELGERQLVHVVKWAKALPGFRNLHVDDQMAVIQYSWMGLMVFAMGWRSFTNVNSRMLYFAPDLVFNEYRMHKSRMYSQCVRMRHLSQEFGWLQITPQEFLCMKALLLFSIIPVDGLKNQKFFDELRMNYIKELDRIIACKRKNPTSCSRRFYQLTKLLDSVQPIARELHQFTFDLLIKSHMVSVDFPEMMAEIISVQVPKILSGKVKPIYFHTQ
Put plainly: Androgen Receptor ELISA assay (PathScan AR ELISA) in VCaP cells: AR degradation, Dmax and DC50. It counts as cell-based. In short, it runs like this: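 VCaP cells in phenol red-free RPMI with 5% charcoal-stripped FBS were grown at least 3 days, then given compound as 7 half-log doses in 0.1% DMSO with 0.1 nM R1881 for 24 h. Lysates went into a sandwich AR ELISA with TMB read at 450 nm.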
For orientation: ELISA stands for enzyme-linked immunosorbent assay.

Setting [1] is: VCaP cells; Table 36; read-out: VCaP DC50.
[2] abbreviates: VCaP, VCaP cells; Table 36; read-out: VCaP Dmax (%).
Where [3] appears, read: read-out: VCaP DC50; VCaP cells; Table 36.
Setting [4] is: VCaP, read-out: VCaP Dmax (%), VCaP cells; Table 36.

These results are taken from patent US11427548B2 (Arvinas Operations, Inc., priority 2015, dated 2022).

Where two headings read alike, the source gives them in different places.

As usually defined, the DC50 is the concentration at which degradation of the target reaches its halfway point. By Dmax is commonly meant the largest share of the target that was removed.

In the case of `Cc1ncsc1-c1ccc([C@H](C)NC(=O)[C@@H]2C[C@@H](O)CN2C(=O)[C@H](C(C)C)n2cc(-c3ccnc(OC4CN(c5ccc(C(=O)N[C@H]6C(C)(C)[C@H](Oc7ccc(C#N)c(Cl)c7)C6(C)C)cn5)C4)c3)cn2)cc1` [Example 594, N-((1r,3r)-3-(3-chloro-4-cyanophenoxy)-2,2,,4-tetramethylcyclobutyl)-6-(3-((4-(1-((S)-1-((2S,4R)-4-hydroxy-2-(((S)-1-(4-(4-methylthiazol-5-yl)phenyl)ethyl)carbam-oyl)pyrrolidin-1-yl)-3-methyl-1-oxobutan-2-yl)-1H-pyrazol-4-yl)pyridin-2-yl)oxy)azetidin-1-yl)nicotinamide], the DC50 under setting [1] is > 501 nM. The Dmax under setting [2] is < 25%.
Taken in the same sequence, the figures for `Cc1ncsc1-c1ccc([C@H](C)NC(=O)[C@@H]2C[C@@H](O)CN2C(=O)[C@@H](C(C)C)n2cc(-c3ccnc(OC4CN(c5ccc(C(=O)N[C@H]6C(C)(C)[C@H](Oc7ccc(C#N)c(Cl)c7)C6(C)C)cn5)C4)c3)cn2)cc1` [Example 595, N-((1r,3r)-3-(3-chloro-4-cyanophenoxy)-2,2,4,4-tetramethylcyclobutyl)-6-(3-((4-(1-((R)-1-((2S,4R)-4-hydroxy-2-(((S)-1-(4-(4-methylthiazol-5-yl)phenyl)ethyl)carbam-oyl)pyrrolidin-1-yl)-3-methyl-1-oxobutan-2-yl)-1H-pyrazol-4-yl)pyridin-2-yl)oxy)azetidin-1-yl)nicotinamide] were < 50 nM and 51 to 70%.
Taken in the same sequence, the figures for `Cc1ncsc1-c1ccc([C@H](C)NC(=O)[C@@H]2C[C@@H](O)CN2C(=O)[C@H](C(C)C)n2cc(-c3ccnc(N4CC[C@@H](Nc5ccc(C(=O)N[C@H]6C(C)(C)[C@H](Oc7ccc(C#N)c(Cl)c7)C6(C)C)cc5)C4)c3)cn2)cc1` [Example 596, (2S,4R)-1-((S)-2-(4-(2-((R)-3-((4-(((1r,3R)-3-(3-chloro-4-cyanophenoxy)-2,2,4,4-tetramethylcyclobutyl)carbamoyl)phenyl)amino)pyrrolidin-1-yl)pyridin-4-yl)-1H-pyrazol-1-yl)-3-methylbutanoyl)-4-hydroxy-N-((S)-1-(4-(4-methylthiazol-5-yl)phenyl)ethyl)pyrroli-dine-2-carboxamide] were > 501 nM and 26 to 50%.
The corresponding values for `Cc1ncsc1-c1ccc([C@H](C)NC(=O)[C@@H]2C[C@@H](O)CN2C(=O)[C@@H](C(C)C)n2cc(-c3ccnc(N4CC[C@@H](Nc5ccc(C(=O)N[C@H]6C(C)(C)[C@H](Oc7ccc(C#N)c(Cl)c7)C6(C)C)cc5)C4)c3)cn2)cc1` [Example 597, (2S,4R)-1-((R)-2-(4-(2-((R)-3-((4-(((1r,3R)-3-(3-chloro-4-cyanophenoxy)-2,2,4,4-tetramethylcylcobutyl)carbamoyl)phenyl)amino)pyrrolidin-1-yl)pyridin-4-yl)-1H-pyrazol-1-yl)-3-methylbutanoyl)-4-hydroxy-N-((S)-1-(4-(4-methylthiazol-5-yl)phenyl)ethyl)pyrroli-dine-2-carboxamide] are > 501 nM and < 25%.
For the compound `Cc1ncsc1-c1ccc(CNC(=O)[C@@H]2C[C@@H](O)CN2C(=O)[C@H](C(C)C)n2cc(OC3CCN(c4ccc(-c5ccc(N6C(=S)N(c7ccc(C#N)c(C(F)(F)F)c7)C(=O)C6(C)C)cc5)cn4)CC3)cn2)cc1` [Example 598, 1-(2-(4-((1-(5-(4-(3-(4-cyano-3-(trifluoromethyl)phenyl)-5,5-dimethyl-4-oxo-2-thioxoimidazolidin-1-yl)phenyl)pyridin-2-yl)piperidin-4-yl)oxy)-1H-pyrazol-1-yl)-3-mehtylbutanoyl)-4-hydroxy-N-(4-(4-methylthiazol-5-yl)benzyl)pyrrolidine-2-carboxamide], under “VCaP, read-out: VCaP Dmax (%)”, the Dmax was in the range of 26 to 50%. Further, under setting [3], the half-maximal degradation concentration (DC50) is > 501 nM.
Taken in the same sequence, the figures for `Cc1ncsc1-c1ccc(CNC(=O)[C@@H]2C[C@@H](O)CN2C(=O)[C@@H](C(C)C)n2cc(OC3CCN(c4ccc(-c5ccc(N6C(=S)N(c7ccc(C#N)c(C(F)(F)F)c7)C(=O)C6(C)C)cc5)cn4)CC3)cn2)cc1` [Example 599, (2S,4R)-1-((R)-2-(4-((1-(5-(4-(3-(4-cyano-3-(trifluoromethyl)phenyl)-5,5-dimethyl-4-oxo-2-thioxoimidazolidin-1-yl)phenyl)pyridin-2-yl)piperidin-4-yl)oxy)-1H-pyrazol-1-yl)-3-methylbutanoyl)-4-hydroxy-N-(4-(4-methylthiazol-5-yl)benzyl)pyrrolidine-2-carboxamide] were 26 to 50% and > 501 nM.
Taken in the same sequence, the figures for `Cc1ncsc1-c1ccc([C@H](C)NC(=O)[C@@H]2C[C@@H](O)CN2C(=O)[C@H](C(C)C)n2cc(Oc3cccc(OCCCCCOc4ccc(N5C(=S)N(c6ccc(C#N)c(C(F)(F)F)c6)C(=O)C5(C)C)cc4)c3)cn2)cc1` [Example 600, (2S,4R)-1-((S)-2-(4-(3-((5-(4-(3-(4-cyano-3-(trifluoromethyl)phenyl)-5,5-dimethyl-4-oxo-2-thioxoimidazolidin-1-yl)phenoxy)pentyl)oxy)phenoxy)-1H-pyrazol-1-yl)-3-methylbutanoyl)-4-hydroxy-N-((S)-1-(4-(4-methylthiazol-5-yl)phenyl)ethyl)pyrroli-dine-2-carboxamide] were 26 to 50% and > 501 nM.
For `Cc1ncsc1-c1ccc(CNC(=O)[C@@H]2C[C@@H](O)CN2C(=O)[C@H](C(C)C)n2cc(Oc3cccc(OCCCCCOc4ccc(N5C(=S)N(c6ccc(C#N)c(C(F)(F)F)c6)C(=O)C5(C)C)cc4)c3)cn2)cc1` [Example 601, (2S,4R)-1-((S)-2-(4-(3-((5-(4-(3-(4-cyano-3-(trifluoromethyl)phenyl)-5,5-dimethyl-4-oxo-2-thioxoimidazolidin-1-yl)phenoxy)pentyl)oxy)phenoxy)-1H-pyrazol-1-yl)-3-methylbutanoyl)-4-hydroxy-N-(4-(4-methylthiazol-5-yl)benzyl)pyrrolidine-2-carboxamide], the Dmax (VCaP, read-out: VCaP Dmax (%)) is < 25%. For the same compound, the DC50 under setting [3] is > 501 nM.
For the compound `Cc1ncsc1-c1ccc([C@H](C)NC(=O)[C@@H]2C[C@@H](O)CN2C(=O)[C@@H](C(C)C)n2cc(-c3ccnc(OC4CN(c5ncc(C(=O)NC6C(C)(C)C(Oc7ccc(C#N)c(Cl)c7)C6(C)C)cn5)C4)c3)cn2)cc1` (stereo partly drawn) [Example 603, N-(3-(3-chloro-4-cyanophenoxy)-2,2,4,4-tetramethylcyclobutyl)-2-(3-((4-(1-((R)-1-((2S,4R)-4-hydroxy-2-(((S)-1-(4-(4-methylthiazol-5-yl)phenyl)ethyl)carbam-oyl)pyrrolidin-1-yl)-3-methyl-1-oxobutan-2-yl)-1H-pyrazol-4-yl)pyridin-2-yl)oxy)azetidin-1-yl)pyrimidine-5-carboxamide], under setting [1], the DC50 is > 501 nM. Under setting [4], the maximal degradation (Dmax) is < 25%.
Taken in the same sequence, the figures for `Cc1ncsc1-c1ccc([C@H](C)NC(=O)[C@@H]2C[C@@H](O)CN2C(=O)[C@H](C(C)C)n2cc(-c3ccnc(OC4CN(c5ncc(C(=O)NC6C(C)(C)C(Oc7ccc(C#N)c(Cl)c7)C6(C)C)cn5)C4)c3)cn2)cc1` (stereo partly drawn) [Example 604, N-(3-(3-chloro-4-cyanophenoxy)-2,2,4,4-tetramethylcyclobutyl)-2-(3-((4-(1-((S)-1-((2S,4R)-4-hydroxy-2-(((S)-1-(4-(4-methylthiazol-5-yl)phenyl)ethyl)carbam-oyl)pyrrolidin-1-yl)-3-methyl-1-oxobutan-2-yl)-1H-pyrazol-4-yl)pyridin-2-yl)oxy)azetidin-1-yl)pyrimidine-5-carboxamide] were < 50 nM and 51 to 70%.
With `Cc1ncsc1-c1ccc([C@H](C)NC(=O)C2C[C@@H](O)CN2C(=O)[C@@H](NC(=O)c2cc3ccc(OC[C@H]4C[C@H](COc5ccc(N6C(=S)N(c7ccc(C#N)c(C(F)(F)F)c7)C(=O)C6(C)C)cc5)C4)cc3o2)C(C)(C)C)cc1` (stereo partly shown) [Example 605, 1-(2-(6-((3-((4-(3-(4-cyano-3-(trifluoromethyl)phenyl)-5,5-dimethyl-4-oxo-2-thioxoimidazolidin-1-yl)phenoxy)methyl)cyclo-butyl)methoxy)benzo-furan-2-carboxamido)-3,3-dimethylbutanoyl)-4-hydroxy-N-(1-(4-(4-methylthiazol-5-yl)phenyl)ethyl)pyrroli-dine-2-carboxamide], where the note is “VCaP, read-out: VCaP Dmax (%)”, the Dmax is < 25%. Also, the DC50 under setting [3] is > 501 nM.
